Patent US11180521B2, “Nicotinamide riboside analogs, pharmaceutical compositions, and uses thereof” (Metro International Biotech, LLC, priority 2018, dated 2021)

What was measured:
[1] = PK/PD duration of effect study, single oral gavage dose: administered compound level in liver; assay type: in vivo, C57BL/6 mice; design: key to transcyclohexyl NaR dimer concentration: BQL: Below quantitation limit; BDL: Below Detection Limit, No Peak Detected
Procedure: (§1) Transcyclohexyl nicotinic acid riboside (NaR) dimer was administered by oral gavage at a dose of 500 mg/kg in an Ethanol/PBS, pH 7.4/PEG400 (10/30/60) vehicle. The dosing volume was 5 ml/kg at a solution concentration of 100 mg/ml. The solution concentration was increased for the presence of counterion.
(§2) Animals were fasted for 16 hours prior to dosing. Samples were collected pre-dose and at 0.25, 0.75, 1, 2, 4, 8 and 24 hr post dosing. Following euthanasia, the entire liver and skeletal muscle (gastrocnemius with attached soleus muscle, bilateral) were rinsed with 0.9% saline, and frozen for later bioanalysis. Samples were maintained frozen at −80° C. until bioanalysis.
(§3) Samples were thawed, homogenized, extracted and analyzed by LC-MS on the same day. The LC used was a Shimadzu Nexera UPLC, and the mass spectrometer was an AB Sciex Qtrap 6500. Specimens were analyzed for levels of administered compound (transcyclohexyl NaR dimer), as well as for levels of NAD, NAAD, NAM, and NMN by the method of standard addition, to detect alterations from the basal levels of the analytes. Calibration standards for quantifying administered compound were prepared using transcyclohexyl NaR dimer in mouse liver or skeletal muscle homogenates. Corresponding standards for quantifying other metabolites were also prepared. Data are calculated as the mean concentration from n=6 animals per time point.

[2] = tested on: NAD, NAAD, NAM, and NMN levels in liver; experiment: PK/PD duration of effect study, single oral gavage dose: NAD, NAAD, NAM and NMN levels in liver; assay type: in vivo, C57BL/6 mice; design: key to NAAD concentration: BQL: Below quantitation limit; BDL: Below Detection Limit, No Peak Detected; conditions: for NAAD concentration: pre-dose BDL
Procedure: as §1, §2, §3

% AUC Extrap of transcyclohexyl NaR dimer ([1]; 500 mg/kg oral gavage): 0.00%
AUC(0-x) of transcyclohexyl NaR dimer ([1]; 500 mg/kg oral gavage): 3.05 µg·h/g
AUC(0-∞) of transcyclohexyl NaR dimer ([1]; 500 mg/kg oral gavage): 3.05 µg·h/g
transcyclohexyl NaR dimer concentration ([1]; 0.25 hr after 500 mg/kg oral gavage, pre-dose BQL): 0.0125 mmol/kg
transcyclohexyl NaR dimer concentration ([1]; 0.75 hr after 500 mg/kg oral gavage, pre-dose BQL): 0.000387 mmol/kg
transcyclohexyl NaR dimer concentration ([1]; 1 hr after 500 mg/kg oral gavage, pre-dose BQL): 0.000275 mmol/kg
transcyclohexyl NaR dimer concentration ([1]; 2 hr after 500 mg/kg oral gavage, pre-dose BQL): 0.0000706 mmol/kg
transcyclohexyl NaR dimer concentration ([1]; 4 hr after 500 mg/kg oral gavage, pre-dose BQL): BQL
transcyclohexyl NaR dimer concentration ([1]; 8 hr after 500 mg/kg oral gavage, pre-dose BQL): BQL
transcyclohexyl NaR dimer concentration ([1]; 24 hr after 500 mg/kg oral gavage, pre-dose BQL): BQL
Cmax ([1]; C57BL/6, mouse, 500 mg/kg oral gavage, read-out: Cmax of transcyclohexyl NaR dimer): 10600 ng/g
Tmax ([1]; C57BL/6, mouse, 500 mg/kg oral gavage, read-out: tmax of transcyclohexyl NaR dimer): 15 min
half-life ([1]; C57BL/6, mouse, 500 mg/kg oral gavage, regression points 0.75, 1, 2 h, read-out: t½ of transcyclohexyl NaR dimer (converted)): 30.5 min
concentration at 0.25 h ([1]; C57BL/6, mouse, 0.25 hr after 500 mg/kg oral gavage, pre-dose BQL, read-out: transcyclohexyl NaR dimer concentration): 10600 ng/g
concentration at 0.75 h ([1]; C57BL/6, mouse, 0.75 hr after 500 mg/kg oral gavage, pre-dose BQL, read-out: transcyclohexyl NaR dimer concentration): 327 ng/g
concentration at 1 h ([1]; C57BL/6, mouse, 1 hr after 500 mg/kg oral gavage, pre-dose BQL, read-out: transcyclohexyl NaR dimer concentration): 232 ng/g
concentration at 2 h ([1]; C57BL/6, mouse, 2 hr after 500 mg/kg oral gavage, pre-dose BQL, read-out: transcyclohexyl NaR dimer concentration): 60 ng/g
Compound: CC(=O)OC[C@H]1O[C@@H]([n+]2cccc(C(=O)O[C@H]3CC[C@H](OC(=O)c4ccc[n+]([C@@H]5O[C@H](COC(C)=O)[C@@H](OC(C)=O)[C@H]5OC(C)=O)c4)CC3)c2)[C@H](OC(C)=O)[C@@H]1OC(C)=O [transcyclohexyl NaR dimer, Transcyclohexyl nicotinic acid riboside (NaR) dimer]
NMN concentration ([2]; 0.25 hr after 500 mg/kg oral gavage, pre-dose 0.00637): 0.00556 mmol/kg
NAM concentration ([2]; 0.25 hr after 500 mg/kg oral gavage, pre-dose 0.430): 0.481 mmol/kg
NAD concentration ([2]; 0.25 hr after 500 mg/kg oral gavage, pre-dose 1.08): 0.938 mmol/kg
NMN concentration ([2]; 0.25 hr after 500 mg/kg oral gavage, pre-dose 2.13): 1.86 µg/g
NAM concentration ([2]; 0.25 hr after 500 mg/kg oral gavage, pre-dose 52.5): 58.7 µg/g
NAD concentration ([2]; 0.25 hr after 500 mg/kg oral gavage, pre-dose 713): 623 µg/g
NAAD concentration ([2]; 0.25 hr after 500 mg/kg oral gavage): BDL
NMN concentration ([2]; 0.75 hr after 500 mg/kg oral gavage, pre-dose 0.00637): 0.00977 mmol/kg
NAM concentration ([2]; 0.75 hr after 500 mg/kg oral gavage, pre-dose 0.430): 1.69 mmol/kg
NAD concentration ([2]; 0.75 hr after 500 mg/kg oral gavage, pre-dose 1.08): 0.493 mmol/kg
NMN concentration ([2]; 0.75 hr after 500 mg/kg oral gavage, pre-dose 2.13): 3.26 µg/g
NAM concentration ([2]; 0.75 hr after 500 mg/kg oral gavage, pre-dose 52.5): 206 µg/g
NAD concentration ([2]; 0.75 hr after 500 mg/kg oral gavage, pre-dose 713): 327 µg/g
NAAD concentration ([2]; 0.75 hr after 500 mg/kg oral gavage): BDL
NMN concentration ([2]; 1 hr after 500 mg/kg oral gavage, pre-dose 0.00637): 0.00945 mmol/kg
NAM concentration ([2]; 1 hr after 500 mg/kg oral gavage, pre-dose 0.430): 1.48 mmol/kg
NAD concentration ([2]; 1 hr after 500 mg/kg oral gavage, pre-dose 1.08): 0.575 mmol/kg
NMN concentration ([2]; 1 hr after 500 mg/kg oral gavage, pre-dose 2.13): 3.16 µg/g
NAM concentration ([2]; 1 hr after 500 mg/kg oral gavage, pre-dose 52.5): 181 µg/g
NAD concentration ([2]; 1 hr after 500 mg/kg oral gavage, pre-dose 713): 381 µg/g
NAAD concentration ([2]; 1 hr after 500 mg/kg oral gavage): BDL
NMN concentration ([2]; 2 hr after 500 mg/kg oral gavage, pre-dose 0.00637): 0.00706 mmol/kg
NAM concentration ([2]; 2 hr after 500 mg/kg oral gavage, pre-dose 0.430): 0.660 mmol/kg
NAD concentration ([2]; 2 hr after 500 mg/kg oral gavage, pre-dose 1.08): 1.19 mmol/kg
NMN concentration ([2]; 2 hr after 500 mg/kg oral gavage, pre-dose 2.13): 2.36 µg/g
NAM concentration ([2]; 2 hr after 500 mg/kg oral gavage, pre-dose 52.5): 80.6 µg/g
NAD concentration ([2]; 2 hr after 500 mg/kg oral gavage, pre-dose 713): 787 µg/g
NMN concentration ([2]; 4 hr after 500 mg/kg oral gavage, pre-dose 0.00637): 0.0146 mmol/kg
NAM concentration ([2]; 4 hr after 500 mg/kg oral gavage, pre-dose 0.430): 0.791 mmol/kg
NAD concentration ([2]; 4 hr after 500 mg/kg oral gavage, pre-dose 1.08): 2.23 mmol/kg
NMN concentration ([2]; 4 hr after 500 mg/kg oral gavage, pre-dose 2.13): 4.87 µg/g
NAM concentration ([2]; 4 hr after 500 mg/kg oral gavage, pre-dose 52.5): 96.5 µg/g
NAD concentration ([2]; 4 hr after 500 mg/kg oral gavage, pre-dose 713): 1478 µg/g
NMN concentration ([2]; 8 hr after 500 mg/kg oral gavage, pre-dose 0.00637): 0.0250 mmol/kg
NAM concentration ([2]; 8 hr after 500 mg/kg oral gavage, pre-dose 0.430): 0.609 mmol/kg
NAD concentration ([2]; 8 hr after 500 mg/kg oral gavage, pre-dose 1.08): 4.92 mmol/kg
NMN concentration ([2]; 8 hr after 500 mg/kg oral gavage, pre-dose 2.13): 8.34 µg/g
NAM concentration ([2]; 8 hr after 500 mg/kg oral gavage, pre-dose 52.5): 74.3 µg/g
NAD concentration ([2]; 8 hr after 500 mg/kg oral gavage, pre-dose 713): 3267 µg/g
NMN concentration ([2]; 24 hr after 500 mg/kg oral gavage, pre-dose 0.00637): 0.00459 mmol/kg
NAM concentration ([2]; 24 hr after 500 mg/kg oral gavage, pre-dose 0.430): 0.381 mmol/kg
NAD concentration ([2]; 24 hr after 500 mg/kg oral gavage, pre-dose 1.08): 1.10 mmol/kg
